One test deals with RAW264.7 macrophages. Put plainly: MTT cytotoxicity assay, RAW264.7. Format: cell-based, murine. From the text: According to our previous data and data published by other research groups, chemical transformations of bile acids can greatly improve their antitumor potential. Thus, as the first step of evaluation of the biological activities of our novel DCA derivatives we assessed their effects on tumor cell viability. The cytotoxicity of the compounds was investigated with respect to a panel of cultured cell lines, including human duodenal HuTu-80, hepatocellular HepG2, cervical KB-3-1 and lung A549 carcinomas as well as murine macrophage RAW264.7 and non-transformed human fibroblasts hFF3 by MTT assay.
Human duodenal carcinoma HuTu-80 cells, human hepatocellular carcinoma HepG2 cells, human cervical carcinoma KB-3-1 cells, human lung carcinoma A549 cells were obtained from the Russian Cell Culture Collection (Institute of Cytology, RAS, St. Petersburg, Russia). Non-transformed human fibroblasts hFF3 were kindly provided by Dr. Olga Koval (Institute of Chemical Biology and Fundamental Medicine, SB RAS, Novosibirsk, Russia). RAW264.7 macrophages were kindly provided by Prof. Dr. Dmitry Kuprash (Engelhardt Institute of Molecular Biology, RAS, Moscow, Russia). The cells were cultured in DMEM (Sigma-Aldrich Inc., St. Louis, MO, USA) supplemented with 10% (v/v) heat-inactivated fetal bovine serum (FBS) (BioloT, St. Petersburg, Russia), 100 U/mL penicillin (ICN Biomedicals Inc., Costa Mesa, CA, USA), 100 µg/mL streptomycin and 0.25 µg/mL amphotericin; additionally, in the case of RAW264.7 cells, concentration of glucose in the medium was increased up to 4.5 mg/mL. The cells were incubated at 37 °C in 5% CO2 and 95% air (hereafter referred to as standard conditions). DCA derivatives were dissolved in DMSO to yield stock solutions of 10 mmol/L and stored at −20 °C prior to use.
Cells were seeded in triplicate in 96-well plates at a density of 5 × 10^3 (HuTu-80, HepG2, KB-3-1, hFF3), 10^4 (A549) or 5 × 10^4 (RAW264.7) cells per well. Cells were incubated under standard conditions for 24 h and then they were treated with varying doses of investigated derivatives for subsequent 24 h. Then 10 µL of MTT solution (5 mg/mL) were added to each wells and cells were incubated for an additional 2 h under standard conditions. The crystals of formazan forming within live cells were solubilized with DMSO and the absorbance was measured in a Multiscan RC plate reader (Thermo LabSystems, Helsinki, Finland) at a test and reference wavelengths of 570 nm and 620 nm, respectively. […] To perform SAR analysis, hierarchical clustering of compounds based on their IC50 values was fulfilled with Euclidean distance by using the Morpheus tool (https://software.broadinstitute.org/morpheus/), a platform designed for visualization and analysis of data in a matrix format. Heatmap, containing compounds’ SI values, were constructed by using the Excel 2010 software (Microsoft, Redmond, WA, USA). In order to reveal whether ROS participate in the induction of cell death by compound 9, HuTu-80 cells cultured in 96-well plate were pretreated by NAC at 2 mM for 1 h. Thereafter, the medium was replaced by fresh medium with compound 9 at 8 µM and the cells were incubated with subsequent 24 h under standard conditions. After this time period, the curves of cytotoxicity of compound 9 in the presence or absence of NAC were compared.
(Tetrazolium dyes change colour on reduction, which living cells bring about.)

Another test has as its system HuTu-80 cells. Description: Cell cycle assay (PI, flow cytometry). Format: cell-based, human. Particulars: 8 µM. Here is the method:
To determine the effect of compound 9 on the cell cycle, HuTu-80 cells were seeded in 6-well plates at a density of 5 × 10^5 cells/well for 24 h. After incubation, cells were treated with compound 9 at 8 µM for 6, 18 or 24 h. Thereafter, cells were collected by trypsinization, washed with cold PBS and fixed in 70% ice-cold ethanol for 30 min at 4 °C. Fixed cells were pelleted, stained with PI (1 mg/mL) for 15 min at 37 °C in the dark and analyzed using NovoCyte Flow Cytometer (ACEA Biosciences Inc.). Ten thousand events were recorded for each sample.

In general, IC50 refers to the midpoint of a concentration-inhibition curve. In the case of `COC(=O)CC[C@@H](C)[C@H]1CC[C@H]2[C@@H]3CC[C@@H]4CC(O)(CNCCCO)CC[C@]4(C)[C@H]3CC(=O)[C@]12C` (stereo partly drawn) [Compound 9, Methyl 3-hydroxy-3-((3-hydroxypropylamino)methyl)-12-oxo-5β-cholan-24-oate], the IC50 with RAW264.7 macrophages (Mus musculus, RAW264.7, MTT, 24 h, read-out: IC50 RAW264.7 (macrophage)) was 19.3 ± 3.7 µM. The “Selectivity index RAW264” value in the test on RAW264.7 macrophages (ratio IC50 hFF3 / IC50 RAW264.7) came out at 1.7. The subG1 cell population is listed as 7.4% in the test with HuTu-80 cells (6 h), 30.0% in the test with HuTu-80 cells (18 h) and 41.1% with HuTu-80 cells (24 h).
